The values below come from patent publication US8765786B2, “1-substituted indazole derivative” (Dainippon Sumitomo Pharma Co., Ltd., priority 2012, dated 2014).

T1 sequence (P36544 23-502): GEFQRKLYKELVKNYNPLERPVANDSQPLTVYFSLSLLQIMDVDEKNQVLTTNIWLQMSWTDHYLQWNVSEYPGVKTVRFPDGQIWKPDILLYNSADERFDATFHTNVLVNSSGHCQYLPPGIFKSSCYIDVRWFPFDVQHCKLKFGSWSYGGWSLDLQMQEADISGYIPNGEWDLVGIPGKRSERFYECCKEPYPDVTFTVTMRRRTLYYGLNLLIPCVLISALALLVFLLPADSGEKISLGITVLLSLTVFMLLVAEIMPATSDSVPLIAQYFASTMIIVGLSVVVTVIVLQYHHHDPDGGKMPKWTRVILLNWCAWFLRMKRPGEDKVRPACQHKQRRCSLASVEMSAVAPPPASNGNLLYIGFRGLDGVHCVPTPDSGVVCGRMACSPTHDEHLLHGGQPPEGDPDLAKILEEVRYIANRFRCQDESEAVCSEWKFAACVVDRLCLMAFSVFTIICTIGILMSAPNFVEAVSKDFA

The first test has as its target T1, human α7 nAChR (Homo sapiens, UniProt P36544).
T1 construct: expressed in transfected cells; host or cells: GH4C1 cells derived from rat pituitary (ATCC CCL-82.2)
Description: Evaluation of PAM activity with human α7 nACh receptor stably expressing cells (aequorin luminescence, FDSS7000). The conditions noted are these: result in words; ratio of RLU (Max-Min) to control wells, ACh EC20. Format: cell-based. In short, it runs like this: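 Rat pituitary GH4C1 cells stably expressing human α7 nAChR and aequorin, loaded 4 h at room temperature with 4 μmol/L substrate, in Hanks/20 mM HEPES pH 7.4. After compound then ACh addition, 465 nm luminescence recorded 138 s; PAM activity is RLU (Max-Min) ratio to control wells.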
For the molecule `CCc1ccc2c(cnn2[C@H]2CC[C@@H](NC(=O)C3CCC(F)(F)CC3)CC2)c1` [Example 4, N-(cis-4-(5-ethyl-1H-indazol-1-yl)cyclohexyl)-4,4-difluorocyclohexanecarboxamide], the “PAM activity for α7 nAChR” value is listed as “stronger PAM activity than others”.

Staying with this test, now noted: test compound 10 μmol/L; ACh added at EC20; ratio of RLU (Max-Min) of test wells to control wells.
`CCOc1ccc2c(cnn2C2CCN(C(=O)N[C@H]3CC[C@H](OC)CC3)CC2)c1C` [Example 282]: the “α7PAM (%) @ 10 μmol/L” value is given as 215%.

Take `COC1CCC(NC(=O)N2CCC(n3ncc4c(Br)cccc43)CC2)CC1` (stereo not shown) [Example 98]: the “α7PAM (%) @ 10 μmol/L” value was 89%.

In the case of `O=C(NC1CCC(F)(F)CC1)N1CCC(n2ncc3c(F)cccc32)CC1` [Example 190], the “α7PAM (%) @ 10 μmol/L” value was 256%.

With `COC1CC1c1ccc2c(cnn2C2CCN(C(=O)NC3CCC(F)(F)CC3)CC2)c1` (stereo not shown) [Example 248], the “α7PAM (%) @ 10 μmol/L” value came to 851%.

`CCOc1nn(C2CCN(C(=O)NC3CCCCC3)CC2)c2ccc(CC)cc12` [Example 60]: the “α7PAM (%) @ 10 μmol/L” value was 846%.

`COC1CCC(NC(=O)N2CCC(n3ncc4cc(Cl)ccc43)CC2)CC1` (stereo not shown) [Example 35]: the “α7PAM (%) @ 10 μmol/L” value is recorded as 411%.

`COC1CCC(C(=O)N2CCC(n3ncc4cc(C5CC5)ccc43)CC2)CC1` (stereo not shown) [Example 141]: the “α7PAM (%) @ 10 μmol/L” value amounted to 448%.

Take `COC(C)Cc1ccc2c(cnn2C2CCN(C(=O)NC3CCC(F)(F)CC3)CC2)c1` (stereo not shown) [Example 251]: the “α7PAM (%) @ 10 μmol/L” value was found to be 868%.

On to `O=C(NC1CCC1)N1CCC(n2ncc3cc(OC(F)(F)F)ccc32)CC1` [Example 299], for which the “α7PAM (%) @ 10 μmol/L” value was 302%.

Regarding `O=C(NC1CCC1)N1CCC(n2ncc3cc(C4CC4)ccc32)CC1` [Example 185], the “α7PAM (%) @ 10 μmol/L” value was found to be 494%.

As to `COc1ccc(CNC(=O)N2CCC(n3ncc4cc(C5CC5)ccc43)CC2)cc1` [Example 193], the “α7PAM (%) @ 10 μmol/L” value is on record as 889%.

With `O=C(NC1CCC(F)(F)CC1)N1CCC(n2ncc3cc(OC(F)F)ccc32)CC1` [Example 290], the “α7PAM (%) @ 10 μmol/L” value came out at 1173%.

For `COC1CCC(NC(=O)N2CCC(n3ncc4cc(Br)ccc43)CC2)CC1` (stereo not shown) [Example 71], the “α7PAM (%) @ 10 μmol/L” value is listed as 763%.

Regarding `Cc1ccc2c(c1)c(OC(C)C)nn2C1CCN(C(=O)NC2CCOCC2)CC1` [Example 208], the “α7PAM (%) @ 10 μmol/L” value was 328%.

`COC(C)c1cccc2c1cnn2C1CCN(C(=O)NC2CCC(F)(F)CC2)CC1` (stereo not shown) [Example 231]: the “α7PAM (%) @ 10 μmol/L” value is given as 647%.

For `CCc1ccc2c(c1)c(OC(F)F)nn2C1CCN(C(=O)NC2CCOCC2)CC1` [Example 209], the “α7PAM (%) @ 10 μmol/L” value was determined as 266%.

Take `CCc1c(OC)ccc2c1cnn2C1CCN(C(=O)NC2CCOCC2)CC1` [Example 289]: the “α7PAM (%) @ 10 μmol/L” value stood at 255%.

Take `COC1CCC(NC(=O)N2CCC(n3ncc4c(C)cccc43)CC2)CC1` (stereo not shown) [Example 95]: the “α7PAM (%) @ 10 μmol/L” value is 133%.

For `CCc1ccc2c(cnn2[C@H]2CC[C@@H](C(=O)NC3CCC(OC)CC3)CC2)c1` (stereo partly shown) [Example 130], the “α7PAM (%) @ 10 μmol/L” value was 252%.

Regarding `O=C(NCc1ccccc1)N1CCC(n2ncc3cc(C4CC4)ccc32)CC1` [Example 194], the “α7PAM (%) @ 10 μmol/L” value turned out to be 278%.

As to `COc1cccc2c1cnn2C1CCN(C(=O)NC2CCCCC2)CC1` [Example 181], the “α7PAM (%) @ 10 μmol/L” value was found to be 538%.

For the molecule `O=C(NC1CCC(F)(F)CC1)N1CCC(n2ncc3c(OC(F)F)cccc32)CC1` [Example 201], the “α7PAM (%) @ 10 μmol/L” value is listed as 370%.

Consider `[2H]C([2H])([2H])O[C@H]1CC[C@H](NC(=O)N2CCC(n3ncc4cc(OC5CC5)ccc43)CC2)CC1` [Example 322], for which the “α7PAM (%) @ 10 μmol/L” value turned out to be 639%.

Regarding `CC(=O)N1CCC(NC(=O)N2CCC(n3ncc4cc(C5CC5)ccc43)CC2)CC1` [Example 203], the “α7PAM (%) @ 10 μmol/L” value is recorded as 271%.

Take `CC1(C)CC(NC(=O)N2CCC(n3ncc4cc(C5CC5)ccc43)CC2)CCO1` (stereo not shown) [Example 210]: the “α7PAM (%) @ 10 μmol/L” value came out at 209%.

`O=C(Nc1ccc(Cl)nn1)N1CCC(n2ncc3cc(C4CC4)ccc32)CC1` [Example 204]: the “α7PAM (%) @ 10 μmol/L” value is given as 193%.

`COc1ccc2c(c1)c(C1CCOCC1)nn2C1CCN(C(=O)N[C@H]2CC[C@H](OC)CC2)CC1` [Example 262]: the “α7PAM (%) @ 10 μmol/L” value was 348%.

`[2H]C([2H])([2H])Oc1ccc2c(cnn2C2CCN(C(=O)NC3CCC(F)(F)CC3)CC2)c1` [Example 319]: the “α7PAM (%) @ 10 μmol/L” value was 1337%.

Consider `O=C(NC1CCC(OC(F)F)CC1)N1CCC(n2ncc3cc(C4CC4)ccc32)CC1` (stereo not shown) [Example 205], for which the “α7PAM (%) @ 10 μmol/L” value was found to be 1187%.

As for `COc1cccc2c1cnn2C1CCN(C(=O)NC2CCC(F)(F)CC2)CC1` [Example 182], the “α7PAM (%) @ 10 μmol/L” value is recorded as 742%.

Take `Cc1ccc2c(cnn2C2CCN(C(=O)C3CCCCC3)CC2)c1` [Example 105]: the “α7PAM (%) @ 10 μmol/L” value was found to be 338%.

For `COc1ccc2c(c1)c(C)nn2C1CCN(C(=O)N[C@H]2CC[C@H](OC)CC2)CC1` [Example 242], the “α7PAM (%) @ 10 μmol/L” value is 901%.

As to `CCOCc1ccc2c(cnn2C2CCN(C(=O)NC3CCC(F)(F)CC3)CC2)c1` [Example 207], the “α7PAM (%) @ 10 μmol/L” value is listed as 335%.

In the case of `CCOc1cccc2c1cnn2C1CCN(C(=O)N[C@H]2CC[C@@H](OC)CC2)CC1` [Example 184], the “α7PAM (%) @ 10 μmol/L” value was 200%.

Take `CCOc1c(C)ccc2c1cnn2C1CCN(C(=O)NC2CCC(F)(F)CC2)CC1` [Example 269]: the “α7PAM (%) @ 10 μmol/L” value is given as 835%.

`CCc1ccc2c(cnn2C2CCN(C(=O)C3CCOCC3)CC2)c1` [Example 111]: the “α7PAM (%) @ 10 μmol/L” value worked out at 410%.

On to `CCOC1CCC(NC(=O)N2CCC(n3ncc4c(C)cccc43)CC2)CC1` (stereo not shown) [Example 96], for which the “α7PAM (%) @ 10 μmol/L” value came to 143%.

As to `CCc1cnc2c(cnn2C2CCN(C(=O)NC3CCC(OC)CC3)CC2)c1` (stereo not shown) [Example 100], the “α7PAM (%) @ 10 μmol/L” value is on record as 198%.

On to `COCc1ccc2c(cnn2C2CCN(C(=O)NC3CCC(F)(F)CC3)CC2)c1` [Example 54], for which the “α7PAM (%) @ 10 μmol/L” value is listed as 657%.

In the case of `O=C(NC1CC1)N1CCC(n2ncc3cc(C4CC4)ccc32)CC1` [Example 176], the “α7PAM (%) @ 10 μmol/L” value was 187%.

Take `COCc1cccc2c1cnn2C1CCN(C(=O)NC2CCC(F)(F)CC2)CC1` [Example 166]: the “α7PAM (%) @ 10 μmol/L” value is on record as 711%.

In the case of `COCC1CCC(NC(=O)N2CCC(n3ncc4cc(Cl)ccc43)CC2)CC1` (stereo not shown) [Example 237], the “α7PAM (%) @ 10 μmol/L” value amounted to 832%.

As for `O=C(NC1CCC(F)(F)CC1)N1CCC(n2ncc3c(C4CC4)cccc32)CC1` [Example 161], the “α7PAM (%) @ 10 μmol/L” value was 567%.

For the molecule `O=C(C1CCOCC1)N1CCC(n2ncc3cc(C4CC4)ccc32)CC1` [Example 140], the “α7PAM (%) @ 10 μmol/L” value is listed as 265%.

`COC(C)c1c(C)ccc2c1cnn2C1CCN(C(=O)N[C@H]2CC[C@H](OC)CC2)CC1` (stereo partly shown) [Example 233]: the “α7PAM (%) @ 10 μmol/L” value was found to be 307%.

Consider `CCc1ccc2c(cnn2C2CCCN(C(=O)NC3CCC(OC)CC3)CC2)c1` (stereo not shown) [Example 84], for which the “α7PAM (%) @ 10 μmol/L” value is recorded as 179%.

Take `CCOc1ccc2c(cnn2C2CCN(C(=O)N[C@H]3CC[C@H](OC)CC3)CC2)c1` [Example 30]: the “α7PAM (%) @ 10 μmol/L” value was 908%.

As for `Cc1cccc2c1cnn2C1CCN(C(=O)NC2CCC(OC(F)F)CC2)CC1` (stereo not shown) [Example 97], the “α7PAM (%) @ 10 μmol/L” value was determined as 117%.

For `CCCc1ccc2c(cnn2C2CCN(C(=O)NC3CCC(OC)CC3)CC2)c1` (stereo not shown) [Example 76], the “α7PAM (%) @ 10 μmol/L” value is given as 420%.

In the case of `O=C(NC1CCC(F)(F)CC1)N1CCC(n2ncc3c(C(F)(F)F)cccc32)CC1` [Example 169], the “α7PAM (%) @ 10 μmol/L” value is recorded as 359%.

As to `O=C(NC1CCCCC1)N1CCC(n2ncc3ccccc32)CC1` [Example 39], the “α7PAM (%) @ 10 μmol/L” value is reported as 1892%.

Consider `[2H]C([2H])([2H])O[C@H]1CC[C@H](NC(=O)N2CCC(n3ncc4cc(C5CC5)ccc43)CC2)CC1` [Example 296, 4-(5-cyclopropyl-1H-indazol-1-yl)-N-{trans-4-[(^2H3)methoxy]cyclohexyl}piperidine-1-carboxamide], for which the “α7PAM (%) @ 10 μmol/L” value came to 1268%.

As for `COc1ccc2c(cnn2C2CCN(C(=O)NC3CCCC3(F)F)CC2)c1` (stereo not shown) [Example 88], the “α7PAM (%) @ 10 μmol/L” value turned out to be 1063%.

As for `[2H]C([2H])([2H])c1ccc2c(cnn2C2CCN(C(=O)NC3CCC(F)(F)CC3)CC2)c1` [Example 311], the “α7PAM (%) @ 10 μmol/L” value amounted to 1393%.

Consider `O=C(NC1CCOCC1)N1CCC(n2ncc3cc(OC(F)F)ccc32)CC1` [Example 292], for which the “α7PAM (%) @ 10 μmol/L” value is reported as 413%.

The test is the same for the next values; noted with them: test compound 10 μmol/L; ACh added at EC20; ratio of RLU (Max-Min) of test wells to control wells; read-out: α7PAM (%) @ 10 μmol/L.
`O=C(NC1CCC(F)(F)CC1)N1CCC(n2ncc3cc(Cl)ccc32)CC1` [Example 34, 4-(5-chloro-1H-indazol-1-yl)-N-(4,4-difluorocyclohexyl)piperidine-1-carboxamide]: the activity at 10 µM came to 445%.

As to `Cc1c(C2CC2)ccc2c1cnn2C1CCN(C(=O)NC2CCOCC2)CC1` [Example 283, 4-(5-cyclopropyl-4-methyl-1H-indazol-1-yl)-N-(tetrahydro-2H-pyran-4-yl)piperidine-1-carboxamide], the activity at 10 µM was 845%.

`CCc1nn(C2CCN(C(=O)NC3CCC(F)(F)CC3)CC2)c2ccc(C)cc12` [Example 42, N-(4,4-difluorocyclohexyl)-4-(3-ethyl-5-methyl-1H-indazol-1-yl)piperidine-1-carboxamide]: the activity at 10 µM was 241%.

Turning to `CCOc1c(CC)ccc2c1cnn2C1CCN(C(=O)N[C@H]2CC[C@H](OC)CC2)CC1` [Example 272, 4-(4-ethoxy-5-ethyl-1H-indazol-1-yl)-N-(trans-4-methoxycyclohexyl)piperidine-1-carboxamide], the activity at 10 µM worked out at 442%.

For the molecule `[2H]C([2H])([2H])c1ccc2c(cnn2C2CCN(C(=O)N[C@H]3CC[C@H](OC)CC3)CC2)c1` [Example 144, N-(trans-4-methoxycyclohexyl)-4-[5-(^2H3)methyl-1H-indazol-1-yl]piperidine-1-carboxamide], the activity at 10 µM was 637%.
